Laboratory results published in US3961066A, “6,7-Benzomorphan derivatives” (priority 1973, dated 1976).
Read-outs that look alike come from different tables or passages of the source.

What was measured:
[1] = Analgesic activity (antagonism of the syndrome produced by intraperitoneal injection of 0.6 % aqueous acetic acid); type: in vivo, mice; conditions: for ED50: Mus musculus; for ED50 / analgesic activity compared with morphine: sc; for analgesic activity compared with pentazocin: s.c., result in words; for analgesic activity compared with morphine: mouse, in vivo
Procedure: Note: The test was based on the specific antagonism of the test compound to the typical syndrome produced by intraperitoneal injection of 0.6 % aqueous acetic acid. The syndrome was characterized by intermittent contractions of the abdomen, twisting and turning of the trunk and extension of the hind legs. A group of 5 mice was used for each dose level. The test compound was administered subcutaneously 20 minutes before the injection of acetic acid. […] The ED50 value was calculated according to the Litchfield-Wilcoxon's method.

[2] = Physical dependency (abstinence syndrome, body weight decrease after withdrawal following 4 weeks of s.c. administration); type: in vivo, male rats of Wistar strain; set-up: key to Abstinence syndrome: ++: severe decrease (about 5 % decrease); ++: moderate decrease; +: mild decrease; -: no decrease; conditions: rats
Procedure: Note: Groups of animals of male rats of Wistar strain (body weight, 150 g), each group consisting of 20 male rats, were subcutaneously given the test compound twice a day for 4 consecutive weeks. On the next day after drug withdrawal, the body weight was measured. The symbols have the following meanings: ++, severe decrease (about 5 % decrease); ++, moderate decrease; +, mild decrease; -, no decrease.

[3] = mice, s.c. 20 minutes before the injection of acetic acid, Litchfield-Wilcoxon's method, read-out: ED50

Row | Structure (SMILES) | ED50 [1, 3] [mg/kg] | analgesic activity compared with pentazocin ([1]; mice) | analgesic activity compared with morphine [1] | Abstinence syndrome ([2]; s.c., 40 mg/kg/day for 4 weeks, twice a day, body weight measured on the next day after drug withdrawal) | physical dependency ([2]; subcutaneously, everyday for 4 weeks, result in words) | ED50 [1] [mg/kg]
1 | CC1CN(CCc2ccccc2)C2Cc3ccc(O)cc3C1(C)C2 (stereo not drawn) [2'-hydroxy-2-(β-phenylethyl)-4,5-dimethyl-6,7-benzomorphan] | 0.23 | much more potent analgesic activity than pentazocin | more potent analgesic activity than morphine |  |  | 
2 | CC1CN(CCCC(=O)c2ccc(F)cc2)C2Cc3ccc(O)cc3C1(C)C2 (stereo not drawn) [2'-hydroxy-2-[γ-(p-fluorobenzoyl)-n-propyl]-4,5-dimethyl-6,7-benzomorphan] | 0.36 | much more potent analgesic activity than pentazocin | more potent analgesic activity than morphine | - | did not produce any physical dependency | 
3 | CN1CC[C@]23c4c5ccc(O)c4O[C@H]2[C@@H](O)C=C[C@H]3[C@H]1C5 [Morphine, reference compound] |  |  |  |  |  | 1.2
